In PubChem BioAssay AID1259408 (Genetic Toxicology Data Bank (GENE-TOX), 2018):
The source made the active and inactive calls. How the calls were made is not given here.

System: GENE-TOX genotoxicity assays, various organisms and cells
Experiment: GENE-TOX mutagenicity studies
Conditions: for call: Assay Type: In vivo carcinogenicity studies
[1] = Species/Cell Type: Salmonella typhimurium, Assay Type: Forward and reverse gene mutation, host-mediated assay, Assay Code: HMA+, Evaluation Type: Evaluation A (Pre-1980)
[2] = Species/Cell Type: Escherichia coli polA (W3119 vs P3478), Assay Type: Rec-assay, DNA effects (bacterial DNA repair), Assay Code: RE1+, Evaluation Type: Evaluation A (Pre-1980)
[3] = Species/Cell Type: Nonhuman bone marrow, Assay Type: Chromosome aberrations, in vivo, Assay Code: CY#+, Evaluation Type: Evaluation A (Pre-1980)
[4] = Species/Cell Type: Saccharomyces cerevisiae, Assay Type: Mitotic recombination or gene conversion, Assay Code: YEC+, Evaluation Type: Evaluation A (Pre-1980)
[5] = Species/Cell Type: Saccharomyces cerevisiae, Assay Type: Mitotic recombination or gene conversion, Assay Code: YEH+, Evaluation Type: Evaluation A (Pre-1980)
[6] = Species/Cell Type: Vicia faba, Assay Type: Chromosome aberrations, Assay Code: VIC+, Evaluation Type: Evaluation A (Pre-1980)

COc1cc(N=Nc2ccccc2)ccc1N
inactive: mutagenic call (Species/Cell Type: Saccharomyces cerevisiae, Assay Type: Mitotic recombination or gene conversion, Assay Code: YEH+/-*, Activation: With metabolic activation, Evaluation Type: Evaluation A (Pre-1980)) inactive; positive without activation, negative with activation
no conclusion: mutagenic call (Species/Cell Type: Escherichia coli polA (W3119 vs P3478), Assay Type: Rec-assay, DNA effects (bacterial DNA repair), Assay Code: RE1T, Evaluation Type: Evaluation A (Pre-1980))
active: mutagenic call (Species/Cell Type: Escherichia coli polA (W3110 vs P3478), Assay Type: Rec-assay, DNA effects (bacterial DNA repair), Assay Code: RE2+, Evaluation Type: Evaluation A (Pre-1980)) active; positive | call (Species/Cell Type: Nonhuman, Assay Code: CCG+L, Evaluation Type: Evaluation A (Pre-1980)) active; positive | mutagenic call (Species/Cell Type: Salmonella typhimurium (one or more of the five standard strains: TA98, TA100, TA1535, TA1537, and TA1538), Assay Type: Histidine reverse gene mutation, Ames assay, Assay Code: SAL+*, Activation: With metabolic activation, Evaluation Type: Evaluation A (Pre-1980)) active; positive | mutagenic call [1] active; positive | mutagenic call (Species/Cell Type: Syrian hamster embryo (SHE) cells, Assay Type: Cell transformation, clonal assay, Assay Code: CTC+, Evaluation Type: Evaluation A (Pre-1980)) active; positive

CCN(N=O)C(N)=O
active: mutagenic call (Species/Cell Type: Arabidopsis species, Assay Type: Gene mutation, Assay Code: ARM+D, Dose Response: With dose response, Evaluation Type: Evaluation A (Pre-1980)) active; positive | mutagenic call (Species/Cell Type: Chinese hamster ovary (CHO) cells, Assay Type: Forward gene mutation at the HPRT locus, Assay Code: CHO+D, Dose Response: With dose response, Evaluation Type: Evaluation A (Pre-1980)) active; positive | mutagenic call (Species/Cell Type: Drosophila melanogaster, Assay Type: Aneuploidy, partial sex chromosome loss, chromosome aberrations, Assay Code: DAP+M, Evaluation Type: Evaluation A (Pre-1980)) active; positive | mutagenic call (Species/Cell Type: Drosophila melanogaster, Assay Type: Aneuploidy, whole sex chromosome loss, chromosome aberrations, Assay Code: DAC+M, Evaluation Type: Evaluation A (Pre-1980)) active; positive | mutagenic call (Species/Cell Type: Drosophila melanogaster, Assay Type: Sex-linked recessive lethal gene mutation, Assay Code: SRL+, Evaluation Type: Evaluation A (Pre-1980)) active; positive | mutagenic call [2] active; positive | mutagenic call (Species/Cell Type: Fischer rat embryo (RLV/1706) cells, Assay Type: Cell transformation, viral enhanced, Assay Code: CTR+, Evaluation Type: Evaluation A (Pre-1980)) active; positive | mutagenic call (Species/Cell Type: Hordeum vulgare (barley), Assay Type: Chromosome aberrations, Assay Code: HOC+, Evaluation Type: Evaluation A (Pre-1980)) active; positive | mutagenic call (Species/Cell Type: Hordeum vulgare (barley), Assay Type: Gene mutation, Assay Code: HOM+, Evaluation Type: Evaluation A (Pre-1980)) active; positive | mutagenic call (Species/Cell Type: Human diploid fibroblasts, Assay Type: Unscheduled DNA synthesis (UDS) in vitro, DNA effects, Assay Code: UDH+, Evaluation Type: Evaluation A (Pre-1980)) active; positive | mutagenic call (Species/Cell Type: Human lymphocytes or leukocytes, Assay Type: Chromosome aberrations in vitro, Assay Code: CY7+D, Dose Response: With dose response, Evaluation Type: Evaluation A (Pre-1980)) active; positive | mutagenic call (Species/Cell Type: Human, Assay Type: Sister-chromatid exchange (SCE) in vitro, Assay Code: SC1+, Evaluation Type: Evaluation A (Pre-1980)) active; positive | mutagenic call (Species/Cell Type: Mammalian polychromatic erythrocytes, Assay Type: Micronucleus test, chromosome aberrations, Assay Code: MNT+, Evaluation Type: Evaluation B (Post-1980)) active; positive | mutagenic call (Species/Cell Type: Mouse germ cells, Sex: Male, Assay Type: Unscheduled DNA synthesis (UDS) in vivo, DNA effects, Assay Code: UDT+, Evaluation Type: Evaluation A (Pre-1980)) active; positive | mutagenic call (Species/Cell Type: Mouse, Sex: Female, Assay Type: Spot test, gene mutation, Assay Code: MST+, Evaluation Type: Evaluation A (Pre-1980)) active; positive | mutagenic call (Species/Cell Type: Mouse, Sex: Male, Assay Type: Specific locus test, gene mutation, Assay Code: SLT+, Evaluation Type: Evaluation A (Pre-1980)) active; positive | mutagenic call (Species/Cell Type: Neurospora crassa, Assay Type: Forward gene mutation, Assay Code: NEF+, Evaluation Type: Evaluation A (Pre-1980)) active; positive | mutagenic call [3] active; positive | call (Species/Cell Type: Nonhuman, Assay Code: CCG+, Evaluation Type: Evaluation A (Pre-1980)) active; positive | mutagenic call (Species/Cell Type: Nonhuman, Assay Type: Sister-chromatid exchange (SCE) in vitro, Assay Code: SC2+D, Dose Response: With dose response, Evaluation Type: Evaluation A (Pre-1980)) active; positive | mutagenic call (Species/Cell Type: Nonhuman, Assay Type: Sister-chromatid exchange (SCE) in vivo, Assay Code: SC3+D, Dose Response: With dose response, Evaluation Type: Evaluation B (Post-1980)) active; positive | mutagenic call [4] active; positive | mutagenic call [5] active; positive | mutagenic call (Species/Cell Type: Salmonella typhimurium (one or more of the five standard strains: TA98, TA100, TA1535, TA1537, and TA1538), Assay Type: Histidine reverse gene mutation, Ames assay, Assay Code: SAL+, Evaluation Type: Evaluation A (Pre-1980)) active; positive | mutagenic call [1] active; positive | mutagenic call [6] active; positive | mutagenic call (Species/Cell Type: Zea mays (corn), Assay Type: Gene mutation, Assay Code: ZEM+D, Dose Response: With dose response, Evaluation Type: Evaluation A (Pre-1980)) active; positive
no conclusion: mutagenic call (Species/Cell Type: Drosophila melanogaster, Sex: Male, Assay Type: Heritable translocation test, chromosome aberrations, Assay Code: DHTT, Evaluation Type: Evaluation A (Pre-1980)) | mutagenic call (Species/Cell Type: Syrian hamster embryo (SHE) cells, Assay Type: Cell transformation, clonal assay, Assay Code: CTCT, Evaluation Type: Evaluation A (Pre-1980))

O=C(O)COc1ccc(Cl)cc1Cl
active: mutagenic call (Species/Cell Type: Allium cepa, Assay Type: Chromosome aberrations, Assay Code: ALC+, Evaluation Type: Evaluation A (Pre-1980)) active; positive | mutagenic call (Species/Cell Type: Bacillus subtilis (H17 vs M45), Assay Type: Rec-assay, spot test, DNA effects (bacterial DNA repair), Assay Code: REW+, Evaluation Type: Evaluation A (Pre-1980)) active; positive | mutagenic call (Species/Cell Type: Chinese hamster lung (V79) cells, Assay Type: Forward gene mutation at the HPRT or ouabain locus, Assay Code: V79+, Evaluation Type: Evaluation A (Pre-1980)) active; positive | mutagenic call [2] active; positive | mutagenic call (Species/Cell Type: Human lymphocytes or leukocytes, Assay Type: Chromosome aberrations in vitro, Assay Code: CY7+, Evaluation Type: Evaluation A (Pre-1980)) active; positive | mutagenic call (Species/Cell Type: Human lymphocytes, Assay Type: Sister-chromatid exchange (SCE) in vitro, Assay Code: SCL+D, Dose Response: With dose response, Evaluation Type: Evaluation B (Post-1980)) active; positive | mutagenic call (Species/Cell Type: Human, Assay Type: Sister-chromatid exchange (SCE) in vitro, Assay Code: SC1+D, Dose Response: With dose response, Evaluation Type: Evaluation B (Post-1980)) active; positive | mutagenic call [3] active; positive | mutagenic call [4] active; positive | mutagenic call [5] active; positive | mutagenic call [6] active; positive
inactive: mutagenic call (Species/Cell Type: Drosophila melanogaster, Assay Type: Aneuploidy, sex chromosome gain, chromosome aberrations, Assay Code: DAG-M-F, Evaluation Type: Evaluation A (Pre-1980)) inactive; negative | mutagenic call (Species/Cell Type: Drosophila melanogaster, Assay Type: Aneuploidy, whole sex chromosome loss, chromosome aberrations, Assay Code: DAC-M-F, Evaluation Type: Evaluation A (Pre-1980)) inactive; negative | mutagenic call (Species/Cell Type: Drosophila melanogaster, Assay Type: Sex-linked recessive lethal gene mutation, Assay Code: SRL-, Evaluation Type: Evaluation A (Pre-1980)) inactive; negative | mutagenic call (Species/Cell Type: Escherichia coli WP2 UVRA, Assay Type: Tryptophan reverse gene mutation, Assay Code: WPU-*, Activation: With metabolic activation, Evaluation Type: Evaluation A (Pre-1980)) inactive; negative | mutagenic call (Species/Cell Type: Human diploid fibroblasts, Assay Type: Unscheduled DNA synthesis (UDS) in vitro, DNA effects, Assay Code: UDH-, Evaluation Type: Evaluation A (Pre-1980)) inactive; negative | mutagenic call (Species/Cell Type: Saccharomyces cerevisiae, Assay Type: Mitotic recombination or gene conversion, Assay Code: YEH-, Evaluation Type: Evaluation A (Pre-1980)) inactive; negative | mutagenic call (Species/Cell Type: Salmonella typhimurium (one or more of the five standard strains: TA98, TA100, TA1535, TA1537, and TA1538), Assay Type: Histidine reverse gene mutation, Ames assay, Assay Code: SAL-, Evaluation Type: Evaluation A (Pre-1980)) inactive; negative | mutagenic call (Species/Cell Type: Salmonella typhimurium, Saccharomyces cerevisiae, Assay Type: Forward and reverse gene mutation, mitotic recombination and gene conversion, DNA effects, host-mediated assay, Assay Code: HM3-, Evaluation Type: Evaluation A (Pre-1980)) inactive; negative
no conclusion: mutagenic call (Species/Cell Type: Mammalian polychromatic erythrocytes, Assay Type: Micronucleus test, chromosome aberrations, Assay Code: MNTT, Evaluation Type: Evaluation A (Pre-1980)) | call (Species/Cell Type: Nonhuman, Assay Code: CCGT, Evaluation Type: Evaluation A (Pre-1980)) | mutagenic call (Species/Cell Type: Salmonella typhimurium (one or more of the five standard strains: TA98, TA100, TA1535, TA1537, and TA1538), Assay Type: Histidine reverse gene mutation, Ames assay, Assay Code: SALT, Evaluation Type: Evaluation A (Pre-1980))
